Measurements from ChEMBL document CHEMBL5727507, “Substituted indole Mcl-1 inhibitors” (2020).
pKi: −log10 of the molar value.

The compounds below were run against Induced myeloid leukemia cell differentiation protein Mcl-1 (Homo sapiens, UniProt Q07820) (assay: Fluorescence Polarization Anisotropy Competition Assay: Compound affinity was measured using a fluorescence polarization anisotropy competition assay. Anisotropy measurements were carried out in 384-well, black, flat-bottom plates (Greiner Bio-one, Monroe, N.C., USA).).
Sequence of Induced myeloid leukemia cell differentiation protein Mcl-1 (Q07820 whole entry): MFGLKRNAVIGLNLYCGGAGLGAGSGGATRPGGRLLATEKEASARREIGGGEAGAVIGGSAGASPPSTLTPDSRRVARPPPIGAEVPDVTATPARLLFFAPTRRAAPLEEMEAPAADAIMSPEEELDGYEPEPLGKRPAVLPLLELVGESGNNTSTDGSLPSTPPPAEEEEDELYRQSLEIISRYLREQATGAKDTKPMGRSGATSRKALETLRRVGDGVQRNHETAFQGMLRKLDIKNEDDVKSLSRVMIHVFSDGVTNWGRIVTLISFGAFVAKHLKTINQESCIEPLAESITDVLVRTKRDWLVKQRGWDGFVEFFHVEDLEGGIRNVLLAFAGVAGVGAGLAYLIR

SMILES	pKi
Cc1cc(OCCCc2c(C(=O)NCc3cc(C(=O)O)cc(Cl)n3)[nH]c3c(-c4c(C)nn(C)c4C)cccc23)cc(C)c1Cl	> 7.30
Cc1cc(OCCCc2c3n(c4c(-c5c(C)nn(C)c5C)c(Cl)ccc24)[C@H](C)CN(c2ccc(C(=O)O)c4ncccc24)C3=O)cc(C)c1Cl	> 7.30
Cc1cc(OCCCc2c(C(=O)N[C@@H]3CCC[C@@H](C(=O)O)C3)[nH]c3c(-c4c(C)nn(C)c4C)cccc23)cc(C)c1Cl	> 7.30
Cc1cc(OCCCc2c(C(=O)N(C)c3ccc(C(=O)O)cc3)[nH]c3c(-c4c(C)nn(C)c4C)c(Cl)ccc23)cc(C)c1Cl	> 7.30
Cc1cc(OCCCc2c3n(c4c(-c5c(C)nn(C)c5C)c(Cl)ccc24)CCCN(c2ccc(C(=O)O)c4ncccc24)C3=O)cc(C)c1Cl	> 7.30
Cc1cc(OCCCc2c(C(=O)N[C@H]3CC[C@@H](C(=O)O)CC3)[nH]c3c(-c4c(C)nn(C)c4C)cccc23)cc(C)c1Cl	> 7.30
Cc1cc(OCCCc2c3n(c4c(-c5c(C)nn(C)c5C)c(Cl)ccc24)CCCN(c2ccc(C(=O)O)c4c2ccn4C)C3=O)cc(C)c1Cl	> 7.30
Cc1cc(OCCCc2c3n(c4c(-c5c(C)nn(C)c5C)cccc24)CCCN(c2ccnc4c(C(=O)O)cccc24)C3=O)cc(C)c1Cl	> 7.30
Cc1cc(OCCCc2c(C(=O)N3CCN(c4ccc(C(=O)O)cc4)CC3)n(CCN3CCOCC3)c3c(-c4c(C)nn(C)c4C)c(Cl)ccc23)cc(C)c1Cl	> 7.30
